The source of these data is patent US9757375B2, “Compounds that inhibit human DNA ligases and methods of treating cancer” (University of Maryland, Baltimore, priority 2007, dated 2017).

The target of one test is T1, T4 DNA ligase (Enterobacteria phage T4, UniProt P00970).
T1 construct: purchased NEB
T1 sequence (P00970 1-487): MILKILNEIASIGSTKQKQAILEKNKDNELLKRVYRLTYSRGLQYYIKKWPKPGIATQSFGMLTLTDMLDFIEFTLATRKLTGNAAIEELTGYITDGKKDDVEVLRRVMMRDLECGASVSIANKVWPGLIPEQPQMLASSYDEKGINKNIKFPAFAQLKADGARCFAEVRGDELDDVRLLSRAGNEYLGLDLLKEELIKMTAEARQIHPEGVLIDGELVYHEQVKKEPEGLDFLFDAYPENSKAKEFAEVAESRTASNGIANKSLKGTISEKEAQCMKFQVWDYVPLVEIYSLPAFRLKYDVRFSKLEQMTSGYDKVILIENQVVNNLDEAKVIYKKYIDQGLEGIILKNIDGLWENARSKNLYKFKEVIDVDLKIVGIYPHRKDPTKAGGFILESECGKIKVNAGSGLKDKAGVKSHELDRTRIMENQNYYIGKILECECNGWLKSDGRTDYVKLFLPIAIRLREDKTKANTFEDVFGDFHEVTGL
Nature of the test: High-throughput fluorescence-based DNA joining assay, non-specific inhibitor control. Type of test: biochemical, bacteriophage T4. To be noted: in vitro screen, 100 μmol/L. In a few lines:
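This counter-screen used a FRET-based DNA joining assay. Duplicate reactions held 10 pmol nicked DNA substrate and 10 units T4 DNA ligase, with or without 100 μmol/L compound. T4 ligase lacks the DNA-binding domain targeted in silico, so compounds inhibiting it were flagged as non-specific, likely DNA-binding.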

Another test relates to HCT116 cells. Nature of the test: Cell proliferation screen (SYBR Green, Biomek FX). Type of test: cell-based, human. To be noted: 50 μM; percentage of values obtained with DMSO alone. As for the experimental part: The ability of the compounds identified by CADD to inhibit proliferation of normal mammary epithelial MCF10A cells and colon carcinoma HCT116 cells was determined using a Biomek FX Laboratory Automation Workstation (Beckman Coulter, Inc., Fullerton, Calif.). On day 0, 20 μl of complete medium containing the appropriate number of cells (150-300) was plated per well of a 384-well tissue plate (Fisher Scientific, Hampton, N.H.) and incubated overnight at 37° C. with 5% CO2 and 90% humidity. Next day, day 1, compounds were prepared by serial dilution with complete medium to yield the concentration 100 μM, and 20 μl was added to each well containing 20 μl of medium and cells yielding the final concentration 50 μM in 40 μl volume. Plates were incubated for additional 3 days (days-2-5) until control cells (0.5% DMSO) reached ˜70-80% confluency. On day 6, 40 μl of lysis/detection solution containing 1.2% Igepal CA-630 (Sigma) and a 1:1000 dilution of SYBR Green I nucleic acid stain (Molecular Probes, Eugene, Oreg.) was added to each well. Following an overnight incubation at 37° C., total fluorescence was measured using a Fluorostar Galaxy plate reader with a 485 nm excitation filter and 520 nm emission filter set (BMG Labtech, Inc., Durham, N.C.). Data was exported to a custom program that determined growth inhibition by dividing each individual fluorescence value by the average of fluorescence values obtained with cells treated with DMSO alone.
The 192 human DNA ligase inhibitors were screened in parallel for effects on proliferation and the ability to potentiate the effects of several DNA damaging agents using two cell human lines, a colon cancer line HCT116 and a normal breast epithelial cell line MCF10A using a Biomek FX Laboratory Automation Workstation as described (23). The DNA damaging agents used, methyl methanesulfonate (MMS), camptothecin, cis-platinum, 3 aminobenzamide and ionizing radiation, are representatives of classes of agents used to treat cancer. Briefly, HCT116 and MCF10A cells were plated in 96 well plates such that the cultures were about 80% confluent after 5 days incubation. Compounds were added to the cultures at either 15 μM or 50 μM 1 day after plating. After incubation for 3 days, cell lysed in a solution containing 1.2% Igepal CA-630 and SYBR green that stains DNA (1:1000, Molecular Probes, Eugene, Oreg.). Subsequently, fluorescence was measured per well. The studies with DNA damaging agents were performed as follows. […] For ionizing radiation, cells were pre-incubated with the compounds at 50 μM for 1 hour prior to exposure to 2 gray of ionizing radiation. Cultures were incubated for 3 days and then treated as above.

The next test relates to DNA. Nature of the test: DNA binding by displacement of ethidium bromide from DNA. The conditions noted are these: EtBr replacement assay; 192 at 0, 50, 100 μM. As for the experimental part:
Candidate ligase inhibitors identified by CADD were assayed for their ability to inhibit hLigI and T4 DNA ligase using a high-throughput, fluorescence energy transfer-based DNA joining assay (22). Duplicate reactions (30 μL) containing 10 pmol of nicked DNA substrate and either 0.25 pmol of hLigI or 10 units of T4 DNA ligase were incubated in the presence or absence of 100 μmol/L of the putative inhibitor. DNA binding by the candidate DNA ligase inhibitors was measured by displacement of ethidium bromide from DNA as previously described (30).

Another test deals with T2, hLigI (Homo sapiens, UniProt P18858).
T2 construct: made in house
Description: High-throughput fluorescence-based DNA joining (ligation) assay. To be noted: in vitro screen, 100 μmol/L; the 15 hLigI inhibitors inhibited by >50%. It counts as biochemical. In a few lines: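 Nicked DNA substrate (10 pmol) was incubated with 0.25 pmol hLigI, with or without 100 μmol/L test compound, in duplicate. Afterwards the DNA was denatured and renatured with a 20-fold excess of unmodified oligonucleotide. Ligation forms an AF488/BHQ1 hairpin, read as reduced fluorescence at 518 nm.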

“Also recorded” adds a separate entry of the source.

T2 sequence (P18858 whole entry): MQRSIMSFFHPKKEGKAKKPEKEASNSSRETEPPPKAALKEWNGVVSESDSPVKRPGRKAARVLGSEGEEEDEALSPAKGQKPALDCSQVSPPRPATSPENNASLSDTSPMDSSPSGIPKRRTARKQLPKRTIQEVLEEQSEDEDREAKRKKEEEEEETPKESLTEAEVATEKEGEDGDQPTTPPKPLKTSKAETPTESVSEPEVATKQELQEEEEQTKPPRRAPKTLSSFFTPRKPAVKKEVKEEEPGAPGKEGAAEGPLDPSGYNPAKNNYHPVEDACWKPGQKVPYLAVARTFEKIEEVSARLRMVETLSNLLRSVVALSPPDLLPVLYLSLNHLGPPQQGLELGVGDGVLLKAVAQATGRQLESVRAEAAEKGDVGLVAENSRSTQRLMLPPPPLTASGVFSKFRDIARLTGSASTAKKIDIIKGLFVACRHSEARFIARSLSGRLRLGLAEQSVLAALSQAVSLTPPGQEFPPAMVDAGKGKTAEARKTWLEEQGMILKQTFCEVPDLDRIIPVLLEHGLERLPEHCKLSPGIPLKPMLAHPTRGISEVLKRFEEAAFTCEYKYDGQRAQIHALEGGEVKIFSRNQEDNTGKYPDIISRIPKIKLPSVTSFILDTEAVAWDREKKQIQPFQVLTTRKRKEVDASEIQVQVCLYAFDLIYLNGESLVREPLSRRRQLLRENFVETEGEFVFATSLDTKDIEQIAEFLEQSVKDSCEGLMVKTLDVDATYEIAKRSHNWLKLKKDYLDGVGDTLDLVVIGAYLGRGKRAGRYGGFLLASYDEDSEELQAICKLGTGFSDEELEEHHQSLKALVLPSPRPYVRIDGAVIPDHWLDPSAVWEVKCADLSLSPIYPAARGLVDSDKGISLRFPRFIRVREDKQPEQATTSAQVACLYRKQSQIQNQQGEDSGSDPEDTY

`O=S(=O)(O)N=Nc1ccc2c(c1)[nH]c1ccccc12` [Compound 192]: on T4 DNA ligase, the “inhibition of T4 DNA ligase, in words” value is “inhibits both hLigI and T4 DNA ligase”. The “Growth_Inh % (50 μM) HCT116” value in the test with HCT116 cells is on record as 70%. The “DNA binding of compound (effect on DNA binding by ethidium bromide)” value with DNA is on record as “reduced DNA binding of the DNA intercalating agent ethidium bromide; also recorded: EtBr is replaced”. The “inhibition of hLigI (DNA ligase I), in words” value at hLigI was “inhibited hLigI; also recorded: inhibits both hLigI and T4 DNA ligase”.
